In PubChem BioAssay (NCI):
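Values below derive from 48-hour exposures of cells grown in 96-well plates, with endpoints linearly interpolated between the two concentrations bracketing the appropriate inhibition level. Definition used: TGI = concentration required for complete inhibition of growth.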

Tests used:
Test in all cases: inhibition of tumour cell growth, NCI panel, 48 h
T-47D breast = tested on: T-47D breast
SR leukemia = tested on: SR leukemia
OVCAR-3 ovarian = tested on: OVCAR-3 ovarian
UACC-257 melanoma = tested on: UACC-257 melanoma
CAKI-1 renal = tested on: CAKI-1 renal
SN12C renal = tested on: SN12C renal
SNB-75 CNS = tested on: SNB-75 CNS
MDA-MB-231 breast = tested on: MDA-MB-231 breast
SNB-19 CNS = tested on: SNB-19 CNS
K-562 leukemia = tested on: K-562 leukemia
UACC-62 melanoma = tested on: UACC-62 melanoma
HCT-15 colon = tested on: HCT-15 colon
OVCAR-8 ovarian = tested on: OVCAR-8 ovarian
IGROV1 ovarian = tested on: IGROV1 ovarian
SF-539 CNS = tested on: SF-539 CNS
M14 melanoma = tested on: M14 melanoma
HT29 colon = tested on: HT29 colon
OVCAR-4 ovarian = tested on: OVCAR-4 ovarian
MDA-MB-435 = tested on: MDA-MB-435

CCOC(=O)c1cc(Sc2ccc(N)c(C(=O)OCC)c2)ccc1N showed a TGI (T-47D breast) greater than 100 µM, a TGI (SR leukemia) greater than 100 µM and a TGI (OVCAR-3 ovarian) greater than 100 µM. The TGI (UACC-257 melanoma) was greater than 100 µM, the TGI (CAKI-1 renal) was greater than 100 µM and the TGI (SN12C renal) was 40.3 µM. The TGI (SNB-75 CNS) was greater than 100 µM, the TGI (MDA-MB-231 breast) was greater than 100 µM and the TGI (SNB-19 CNS) was greater than 100 µM. The TGI (K-562 leukemia) was greater than 100 µM, the TGI (UACC-62 melanoma) was greater than 100 µM and the TGI (HCT-15 colon) was greater than 100 µM. For the same molecule, the TGI (OVCAR-8 ovarian) was greater than 100 µM, the TGI (IGROV1 ovarian) was greater than 100 µM and the TGI (SF-539 CNS) was greater than 100 µM. It also gave a TGI (M14 melanoma) greater than 100 µM, a TGI (HT29 colon) greater than 100 µM and a TGI (OVCAR-4 ovarian) greater than 100 µM.

Molecule O=C(NC(C(F)(F)F)(C(F)(F)F)P(=O)(c1ccccc1)c1ccccc1)C(C(F)(F)F)C(F)(F)F has a TGI (T-47D breast) greater than 100 µM, a TGI (OVCAR-3 ovarian) of 69.7 µM and a TGI (UACC-257 melanoma) of 82.2 µM. For the same molecule, the TGI (CAKI-1 renal) was 0.0564 µM, the TGI (SN12C renal) was 77 µM and the TGI (SNB-75 CNS) was 91.3 µM. It also gave a TGI (MDA-MB-231 breast) of 59.2 µM, a TGI (SNB-19 CNS) greater than 100 µM and a TGI (K-562 leukemia) greater than 100 µM. The TGI (UACC-62 melanoma) was greater than 100 µM, the TGI (HCT-15 colon) was 83.3 µM and the TGI (OVCAR-8 ovarian) was 72.8 µM. The TGI (IGROV1 ovarian) was 57.7 µM, the TGI (SF-539 CNS) was 52.1 µM and the TGI (M14 melanoma) was 36.3 µM. For the same molecule, the TGI (HT29 colon) was 56 µM, the TGI (MDA-MB-435) was 37.7 µM and the TGI (OVCAR-4 ovarian) was greater than 100 µM.

Work on NC(=O)OCC(COc1ccc(Cl)cc1)OC(=O)c1ccccc1Cl (stereo not drawn) yielded a TGI (SR leukemia) of 51.7 µM, a TGI (OVCAR-3 ovarian) of 40.7 µM and a TGI (UACC-257 melanoma) of 37.8 µM. It also gave a TGI (CAKI-1 renal) of 74.8 µM, a TGI (SN12C renal) of 34 µM and a TGI (SNB-75 CNS) greater than 100 µM. For the same molecule, the TGI (SNB-19 CNS) was 97.7 µM, the TGI (K-562 leukemia) was 39.4 µM and the TGI (UACC-62 melanoma) was 31.4 µM. The TGI (HCT-15 colon) was 30 µM, the TGI (OVCAR-8 ovarian) was 54.3 µM and the TGI (IGROV1 ovarian) was 59.9 µM. The TGI (SF-539 CNS) was 36.1 µM, the TGI (M14 melanoma) was 32.8 µM and the TGI (HT29 colon) was 33.2 µM.

Molecule O=c1c2cc(S(=O)(=O)Nc3ccccc3Cl)ccc2ncn1NS(=O)(=O)c1ccc(Br)cc1 has a TGI (SR leukemia) greater than 37.5 µM, a TGI (OVCAR-3 ovarian) greater than 37.5 µM and a TGI (UACC-257 melanoma) greater than 37.5 µM. For the same molecule, the TGI (CAKI-1 renal) was greater than 37.5 µM, the TGI (SN12C renal) was greater than 37.5 µM and the TGI (SNB-75 CNS) was greater than 37.5 µM. It also gave a TGI (MDA-MB-231 breast) greater than 37.5 µM, a TGI (SNB-19 CNS) greater than 37.5 µM and a TGI (K-562 leukemia) greater than 37.5 µM. It also gave a TGI (UACC-62 melanoma) greater than 37.5 µM, a TGI (HCT-15 colon) greater than 37.5 µM and a TGI (OVCAR-8 ovarian) greater than 37.5 µM. It also gave a TGI (IGROV1 ovarian) greater than 37.5 µM, a TGI (SF-539 CNS) greater than 37.5 µM and a TGI (M14 melanoma) greater than 37.5 µM. The TGI (HT29 colon) was greater than 37.5 µM, the TGI (MDA-MB-435) was greater than 37.5 µM and the TGI (OVCAR-4 ovarian) was greater than 37.5 µM.

With NCC1(N2CCOCC2)C2CCCC21CO (stereo not drawn) the TGI (SR leukemia) was greater than 100 µM, the TGI (OVCAR-3 ovarian) was greater than 100 µM and the TGI (UACC-257 melanoma) was greater than 100 µM. It also gave a TGI (CAKI-1 renal) greater than 100 µM, a TGI (SN12C renal) greater than 100 µM and a TGI (SNB-75 CNS) greater than 100 µM. For the same molecule, the TGI (SNB-19 CNS) was greater than 100 µM, the TGI (K-562 leukemia) was greater than 100 µM and the TGI (HCT-15 colon) was greater than 100 µM. It also gave a TGI (OVCAR-8 ovarian) greater than 100 µM, a TGI (IGROV1 ovarian) greater than 100 µM and a TGI (SF-539 CNS) greater than 100 µM. It also gave a TGI (M14 melanoma) greater than 100 µM, a TGI (HT29 colon) greater than 100 µM and a TGI (OVCAR-4 ovarian) greater than 100 µM.

CCOC(=O)NC(C(F)(F)F)(C(F)(F)F)P(=O)(OC(C)C)OC(C)C gave a TGI (SR leukemia) greater than 100 µM, a TGI (OVCAR-3 ovarian) greater than 100 µM and a TGI (UACC-257 melanoma) greater than 100 µM. For the same molecule, the TGI (SN12C renal) was greater than 100 µM, the TGI (SNB-75 CNS) was greater than 100 µM and the TGI (MDA-MB-231 breast) was greater than 100 µM. The TGI (SNB-19 CNS) was greater than 100 µM, the TGI (K-562 leukemia) was greater than 100 µM and the TGI (UACC-62 melanoma) was greater than 100 µM. It also gave a TGI (HCT-15 colon) greater than 100 µM, a TGI (OVCAR-8 ovarian) greater than 100 µM and a TGI (IGROV1 ovarian) greater than 100 µM. The TGI (SF-539 CNS) was greater than 100 µM, the TGI (HT29 colon) was greater than 100 µM and the TGI (MDA-MB-435) was greater than 100 µM. It also gave a TGI (OVCAR-4 ovarian) greater than 100 µM.

With Cc1occc1C(=S)Nc1ccc(Cl)c(C(=O)OCC(F)(F)F)c1 the TGI (T-47D breast) was 72.4 µM, the TGI (OVCAR-3 ovarian) was 81.4 µM and the TGI (UACC-257 melanoma) was 55.9 µM. The TGI (CAKI-1 renal) was 82.6 µM, the TGI (SN12C renal) was 41.4 µM and the TGI (SNB-75 CNS) was 49.4 µM. For the same molecule, the TGI (MDA-MB-231 breast) was 35.2 µM, the TGI (SNB-19 CNS) was 43.9 µM and the TGI (K-562 leukemia) was 59.1 µM. The TGI (UACC-62 melanoma) was 32 µM, the TGI (HCT-15 colon) was 45.3 µM and the TGI (OVCAR-8 ovarian) was 36.2 µM. The TGI (IGROV1 ovarian) was 39.7 µM, the TGI (SF-539 CNS) was 18.1 µM and the TGI (M14 melanoma) was greater than 100 µM. It also gave a TGI (HT29 colon) of 33.7 µM, a TGI (MDA-MB-435) of 37.4 µM and a TGI (OVCAR-4 ovarian) of 45.9 µM.
